Source: US20220008373A1 (priority 2020, published 2022)
“Also recorded” adds a separate entry of the source.

System: pseudovirus carrying the Spike protein of SARS-CoV-2
Type: cell-based

SMILES	inhibition of pseudovirus infection (attachment and entry)
CC(C)C[C@H](N[C@@H](Cc1cncn1Cc1cc(Cl)cc(Cl)c1)C(=O)O)C(=O)O [MLN-4760]	No inhibition of viral infection; also recorded: no ability to block the entrance to the pseudovirus
CN1CCN(c2ccc(CNC(=O)c3ccno3)cc2)CC1 [SSAA09E2]	dose-dependent inhibition of pseudovirus infection; also recorded: effective at blocking infection
